According to article PMC7175367, “1H-Imidazole-2,5-Dicarboxamides as NS4A Peptidomimetics: Identification of a New Approach to Inhibit HCV-NS3 Protease” (Biomolecules, 2020):
Values joined by “and” are separate entries in the source; they are usually repeats but may differ in a detail not shown here. Identical values can stand only once. “Also recorded” adds a separate entry of the source.

Columns and labels:
[1] = target: T1, NS3 domain (Hepatitis C virus genotype 4a, UniProt O39929); test: Differential static light scattering (DSLS) binding test; parameters: species or system HCV genotype 4a; details: NS3 domain 15.0 µM with equimolar compound; for ΔTagg (liganded protein − free protein): 25.0 to 85.0 °C, n = 3; for ΔTagg as % of the positive control NS4A21`–33`: relative to NS4A21`–33`
T1 construct: NS3 protease domain 1–181 aa plus an N-terminal T7 tag and C-terminal His tag; made in house; host or cells: E. coli Rosetta (DE3) pLysS, vector pET-3a
Procedure: We studied the binding of MOC compounds with NS3 by differential static light scattering (DSLS). The NS3 domain stability upon binding to NS4A was measured by monitoring denatured protein aggregation upon increasing the temperature gradually from 25.0 to 85.0 °C (0.5 °C increments) at 600 nm. If a ligand binds to the protein, this increases a protein’s aggregation temperature (Tagg). DSLS provides an advantage of being a label-free binding assay technique and ΔTagg (of liganded protein−free protein) can be used to assess relative binding affinities of ligands. For NS3, the ΔTagg values that occurred upon binding of the MOC compounds were measured and compared to that of NS4A21`–33` as a positive control.
We studied the binding of NS4A and its mutants with NS3 by DSLS using Stargazer-2™ (Harbinger Biotechnology and Engineering Corporation, Toronto, Canada). This method assesses protein stability by monitoring aggregate formation using controlled, gradually elevated temperatures. The NS3 domain stability upon binding to NS4A was measured by monitoring denatured protein aggregation upon increasing the temperature from 25.0 to 85.0 °C (0.5 °C increments) at 600 nm. The Tagg values were calculated automatically from raw data using Stargazer-AIR® software. All experiments were repeated three times using the same batch of NS3 protein.
The NS3 domain (15.0 µM), alone or mixed with an equimolar equivalent of tested MOC derivative, was added to a binding buffer (20.0 mM HEPES, 10.0 mM DTT, 200 mM NaCl, pH 7.60) to a final volume 100 µL. The mixture was incubated at room temperature with gentle shaking for 2 h. Afterwards, 10 µL of the mixture was transferred into a clear bottomed Nunc 384-well plate and covered by 10 µL paraffin oil to minimize evaporation. Protein aggregation was monitored by tracking the change in scattered light that was detected by a charged coupled device (CCD) camera. Snapshot images of the plate were taken every 0.5 °C. The pixel intensities in a preselected region of each well were integrated using image analysis software to generate a value representative of the total amount of scattered light in that region. These intensities were then plotted against temperature for each sample well and fitted to obtain the aggregation temperature (Tagg). Aggregation was monitored and analyzed to assess the effect of NS4A and its synthetic analogues on the stability of the NS3 as an indicator of binding. Each experiment was repeated three times. Statistical analysis was performed using GraphPad Prism v. 8.0® and Instat® v. 3.10 software.

[2] = target: T2, NS3 (NS4A21`–33` binding site) (Hepatitis C virus genotype 4a, UniProt O39929); test: Fluorescence anisotropy (FA) competition assay with FITC-NS4A21`–33`; parameters: species or system HCV genotype 4a; details: displacement of FITC-NS4A21`–33` (0.10 µM) from NS3, 480/520 nm, compounds 150 to 0.292 µM; for IC50: Competition IC50 ± SEM
T2 construct: NS3 protease domain 1–181 aa plus an N-terminal T7 tag and C-terminal His tag; made in house; host or cells: E. coli Rosetta (DE3) pLysS, vector pET-3a
Procedure: This assay measures the potency by which synthetic peptidomimetics affect the binding of labeled NS4A21`–33`. Before testing the MOC compounds, the binding affinity of fluorescein isothiocyanate NS4A21`–33` (FITC-NS4A21`–33`) was first determined (see Supplementary Material Figure S3) based on our previous work. For this particular protein batch, the optimal ratio to be used in the FA affinity test was calculated to be 0.5 µM NS3 and 0.1 µM FITC-NS4A21`–33`. Compounds that efficiently compete with NS4A21`–33` are expected to decrease the fluorescence emitted from NS3/FITC-4A21-34` mixture.
In a 96-well plate, we added a place binding buffer (20 mM HEPES, 10 mM DTT, 200 mM NaCl, pH 7.60) and a mixture of NS3 ([…]) and FITC-NS4A (0.10 µM) at the calculated affinity constant concentration. A serial dilution of MOC compounds (dissolved in 1.50% DMSO in binding buffer) (1/2 dilution starting from 150 to 0.292 µM) were mixed gently for 60 min in a dark place and the fluorescence was measured at excitation/emission wavelengths of 480/520 nm. The competition IC50 was calculated according to the recommended equation embedded in GraphPad Prism v. 8.0® and Instat® software.

[3] = target: T3, NS3 protease (Hepatitis C virus genotype 4a, UniProt O39929); test: Enzyme inhibition assay (SensoLyte 520 HCV Protease Assay Kit, modified); format: biochemical, HCV genotype 4a
T3 construct: NS3 protease domain 1–181 aa plus an N-terminal T7 tag and C-terminal His tag; made in house; host or cells: E. coli Rosetta (DE3) pLysS, vector pET-3a
Procedure: MOC-24 was selected for a qualitative testing for its inhibition of NS3 protease activity. Experiments were carried out using the SensoLyte® 520 HCV Protease Assay Kit. This assay measures the recovered fluorescence emitted upon cleavage of the labeled peptide substrate representing the NS4A/NS4B junction. Considering that NS3 without NS4A is almost a thousand-times less catalytic, the method was modified to suit the purpose of our allosteric inhibition assay. […] As a positive control, an equimolar mixture of NS4A with NS3 (equimolar, 2.00 µM each) caused only a 9-fold increase in the catalytic activity of the enzyme (Figure 5), which was far less than the reported value, possibly due to the large amount of protein used.
The assay was performed using SensoLyte-520® HCV protease assay kit fluorometric* (Anaspec, Fremont, CA, USA) according to a modified procedure to suit the purpose of determination of allosteric inhibition. NS3 (2.00 µM) was mixed with MOC-24 (4.00 µM) for 15.0 min. Afterwards, 5-FAM/QXL™520 fluorescence resonance energy transfer (FRET) peptide was added as instructed by the assay kit manual. […] In the FRET peptide, the fluorescence of 5-FAM is quenched by QXL™520. Upon cleavage into two separate fragments by HCV NS3/4A protease, the fluorescence of 5-FAM is recovered, and can be monitored at 490 nm/520 nm (excitation/emission). […]

[4] = target: HCV NS3 protease domain, genotype 4a (1-181 aa, N-terminal T7 tag, C-terminal His tag) (hepatitis C virus genotype 4a)

| Compound | melting point | ΔTagg (liganded protein − free protein) [1] | IC50 [2] | further results |
| --- | --- | --- | --- | --- |
| CCCCCNC(=O)c1ncc(C(=O)NCC(=O)NC)[nH]1 [MOC-11, N^5-(2-(Methylamino)-2-oxoethyl)-N^2-(n-pentyl)-1H-imidazole-2,5-dicarboxamide] | 87 °C | 0.82 °C | 17.3 ± 1.22 µM | ΔTagg as % of the positive control NS4A21`–33` [1]: 54.6% |
| CCCCCNC(=O)c1ncc(C(=O)NCCCCNC(=N)N)[nH]1 [MOC-23, N^5-(4-Guanidinobutyl)-N^2-(n-pentyl)-1H-imidazole-2,5-dicarboxamide] |  | 0.32 °C | 4.7 ± 0.327 µM | ΔTagg as % of the positive control NS4A21`–33` [1]: 19.5% |
| CCCCCCNC(=O)c1ncc(C(=O)NCCCCNC(=N)N)[nH]1 [MOC-24, N^5-(4-Guanidinobutyl)-N^2-(n-hexyl)-1H-imidazole-2,5-dicarboxamide] |  | 0.60 °C | 1.9 µM and 1.91 µM | ΔTagg as % of the positive control NS4A21`–33` [1]: 39.8% and 40%; NS3 catalytic activity ([3]; qualitative, NS3 2.00 µM, MOC-24 4.00 µM, 5-FAM/QXL520 FRET peptide): inhibited NS3 protease activity; also recorded: complete loss of NS3 catalytic activity |
| N=C(N)NCCCCNC(=O)c1cnc(C(=O)NCCOC2CCCCC2)[nH]1 [MOC-26, N^2-(2-(Cyclohexyloxy)ethyl)-N^5-(4-guanidinobutyl)-1H-imidazole-2,5-dicarboxamide] |  |  | > 100 µM |  |
| N=C(N)NCCCCNC(=O)c1cnc(C(=O)NCCCOC2CCCCC2)[nH]1 [MOC-27, N^2-(3-(Cyclohexyloxy)propyl)-N^5-(4-guanidinobutyl)-1H-imidazole-2,5-dicarboxamide] |  |  | > 100 µM |  |
| N=C(N)NCCCCNC(=O)c1cnc(C(=O)NCCOc2ccccc2)[nH]1 [MOC-28, N^5-(4-Guanidinobutyl)-N^2-(2-phenoxyethyl)-1H-imidazole-2,5-dicarboxamide] | 137 to 139 °C |  | > 100 µM |  |
| N=C(N)NCCCCNC(=O)c1cnc(C(=O)NCCCOc2ccccc2)[nH]1 [MOC-29, N^5-(4-Guanidinobutyl)-N^2-(3-phenoxypropyl)-1H-imidazole-2,5-dicarboxamide] | 135 to 138 °C |  | > 100 µM |  |
| CC(C)OCCCCNC(=O)c1ncc(C(=O)NCCCCNC(=N)N)[nH]1 [MOC-30, N^5-(4-Guanidinobutyl)-N^2-(4-isopropoxybutyl)-1H-imidazole-2,5-dicarboxamide] |  |  | 28.5 ± 8.55 µM |  |
| CC(C)CCCCCNC(=O)c1ncc(C(=O)NCCCCNC(=N)N)[nH]1 [MOC-31, N^5-(4-Guanidinobutyl)-N^2-(6-methylheptyl)-1H-imidazole-2,5-dicarboxamide] | 83 to 84 °C |  | 12.1 ± 1.69 µM |  |
| CCC(C)CCNC(=O)c1ncc(C(=O)NCCCCNC(=N)N)[nH]1 (centres unmarked) [MOC-32, N^5-(4-guanidinobutyl)-N^2-(3-methylpentyl)-1H-imidazole-2,5-dicarboxamide] |  |  | 7.7 µM and 7.74 µM |  |
| CCCCCCNC(=O)c1ncc(C(=O)NCc2ccccn2)[nH]1 [MOC-33, N^2-(n-Hexyl)-N^5-(pyridin-2-ylmethyl)-1H-imidazole-2,5-dicarboxamide] |  | much weaker binding | 40.3 ± 24 µM | Competition IC50 ± SEM [2]: much weaker binding |
| LL-G21SVVIVGRIVLSG33-LL [NS4A] |  |  |  | fold increase in the catalytic activity of the enzyme ([3]; positive control, NS4A equimolar with NS3, 2.00 µM each): 9 fold |
| NS4A_(21`–33`) peptide, LL-G21…33-LL |  |  |  | NS3 protease activity (SensoLyte 520 HCV protease assay, 5-FAM/QXL520 FRET peptide); NS3 2.00 µM with NS4A 2.00 µM against NS3 alone [4]: 9 fold |
